Assay results: US9139615B2, “High-affinity, dimeric inhibitors of PSD-95 as efficient neuroprotectants against ischemic brain damage and for treatment of pain” (University of Copenhagen, priority 2011, dated 2015)
“Also recorded” adds a separate entry of the source. Where no end group is shown, it is not given here.

Tests used:
[1] = Blood-brain barrier permeability of fluorescent analogues; format: in vivo, mice; settings: mice, conclusion for unlabeled compounds
Procedure: VI.ii. Blood-brain Barrier Permeability. […] After injection of the compounds, the mice are perfused with paraformaldehyde and the brains are carefully removed, post-fixed in paraformaldehyde, processed into coronal sections, and quantified for fluorescence (Example 8).
The fluorescent ligands were injected intravenously (3 nmol/g) and the location of the ligands was detected by fluorescence microscopy of coronal brain slices (n=8) mice, was evaluated 2 hours after injection. Two sections of the brain, prior to and two after the anterior commissure (n=5), were selected for BBB permeability analysis. The anterior commissure (Bregma: −0.3) was used as a fix point in the brain in order to analyse anatomically identical brain sections. The intensity of the 5-FAM fluorophore was measured semi-quantitatively using a fluorescence microscopy system (Olympus System Microscope model BX-51, Denmark) with a 10× objective (Olympus 10×/0.15 UPlanApo) connected to a high-resolution microscope digital camera (Olympus model DP70), which transferred images to an image-capturing software (Image Pro Plus software). All images were taken using the same microscope settings and with constant camera exposure time. Intensities were quantified using the ImageJ software.
5-FAM-labeled derivative of Tat-NR2B9c is designated MS23. After injection of the compounds, the mice are perfused with paraformaldehyde and the brains are carefully removed, post-fixed in paraformaldehyde, processed into coronal sections, and quantified for fluorescence.
C57BL/6 mice with 6 hour post-surgical survival time were euthanized by cervical dislocation. C57BL/6 mice with 48 hour post-surgical survival were anesthetized with an overdosed of pentobarbital (the pharmacy of the Faculty of Life Sciences, University of Copenhagen, Denmark) in order to collect blood and tissue samples. All brains were carefully removed, frozen in gaseous CO2 and cut into 6 series of 30 μm coronal cryostat sections and stored at −80° C. until further use. C57BL/6J mice used to investigate the blood-brain barrier (BBB) permeability of AB143, AB145, AB148, and MS23 were deeply anesthetized and perfused through the left ventricle, using 10 ml chilled Soerensens phosphate buffer (SB) ([…], 125 mM Na2HPO4, pH 7.4) followed by 20 mL SB containing 4% paraformaldehyde (PFA). The brains were carefully removed and post-fixed in 4% PFA for 1 hour followed by immersion in SB containing 20% sucrose over night. The brains were frozen on gaseous CO2 and processed into 16 μm coronal cryostat sections.

[2] = Physiological status of pMCAO mice (blood values, body weight, temperature, survival); format: in vivo; settings: pMCAO 48 h experiment, 1 hour after surgery, mean ± SEM
Procedure: The physiological status of the mice was carefully monitored prior to and during pMCAO surgery in order to exclude the observed effects of treatment with dimeric PSD-95 inhibitors being due to secondary conditions (e.g. disease-related) resulting from the experimental procedure.
9.10 Body weight monitoring: The body weight of each mouse was registered during pre-training, before surgery, and at 24 and 48 hours after surgery and no differences were seen between the treatment groups (FIG. 13).
9.11 Temperature monitoring: The rectal temperature of the mouse was continuously measured using a thermocoupled probe connected to a Model Bat 12 unit (Physitemp). The temperature was measured prior to and 30 min after pMCAO in addition to 30 min and 2.5 hours after i.v. injection, i.e. 1 and 3 hours after pMCAO.
9.12 Blood gas analysis: One samples of venous blood was taken for blood gas analysis of PO2/PCO2 electrolytes, glucose, lactate, and hematocrit, 30 min after compound administration (1 hour after pMCAO). A capillary heparin coated tube was inserted along the inner corner of eye and turned until it penetrated the conjunctiva. A sample of blood (150 μl) was collected and stored on ice until gas analysis using the GEM Premier 300 blood gas instrument (Instrumentation Laboratory) Quality controls (QC ContrlIL9) were purchased from IL Sensor Systems. Also, no differences were detected in blood gas parameters (PO2/PCO2, pH, electrolytes, glu/lac), which were similar between the groups and within normal range, when compared to unmanipulated control mice (Table 4).

[3] = Human blood plasma stability assay; format: in vitro ADME; settings: human, plasma; 0.25 mM, 37° C., in vitro; read-out: half-life (T1/2) in human blood plasma
Procedure: Ligands (dimeric PSD-95 inhibitors) for the PDZ domain of PSD-95 were dissolved in human blood plasma (270 μL; 3H Biomedical, Sweden, cat no 1300-1-P50) to a concentration of 0.25 mM (30 μL, of 2.5 mM) and incubated at 37° C. Aliquots (30 μL) were removed at various time intervals (e.g. 0, 5, 10, 20, 40, 80, 160, 320, 960, 1280, 2550, 4560 and 7240 min) and quenched with 60 μL, trichloroacetic acid (aq., 5%). The aliquots were vortexed, and incubated 15 min, at 4° C. prior to centrifugation at 18,000 g for 2 min. The supernatants were analyzed by analytical RP-HPLC (UV218) to quantify compound relative to time zero, and also evaluated qualitatively by ESI-LC/MS in order to identify the compound (m/z) in the sample. Procaine (positive control) and procainamide (negative control) were investigated at 50 μM to validate the procedure. Ligand recoveries following the precipitation procedure were between 85-95%.

[4] = tested on: CFA-induced mechanical allodynia/hyperalgesia; test: Complete Freund's adjuvant (CFA) inflammatory pain, von Frey test; format: in vivo, mice; settings: administered concurrently with CFA, 1 hour and 24 hours after treatment
[5] = tested on: pMCAO model of ischemic stroke; test: Grip strength after pMCAO; format: in vivo, mice; settings: 48 hours after pMCAO, 3 nmol/g i.v.
Procedure: The grip strength meter (BIO-GT-3, BIOSEB) allows the study of neuromuscular functions in mice by determining the maximum force that is required to make the mouse release its grip. The grip strength in individual paws was used to measure the severity of the pMCAO-induced asymmetry. The mouse is allowed to grasp a metal grid and then pulled backwards in the horizontal plane. The force applied to the grid is recorded as the peak tension. The strength of individual front paws and the total grip strength (both paws simultaneously) were measured before (baseline) and after pMCAO. Each mouse is tested in 5 sequential trials and the highest grip strength is recorded as the best score.

[6] = tested on: pMCAO model of ischemic stroke; test: Rotarod performance test after pMCAO; format: in vivo, mice; settings: 48 hours after pMCAO; for total time spent on the rod: 3 nmol/g i.v., four trials
Procedure: The rotarod (LE 8200, Panlab) is well suited to evaluate motor activity in rodents, experimental compound effects on central nervous system damage, or disease effects on motor coordination, assessed by the time during which the animal remains walking in a rotating drum. The rotation of the rotarod is motor drived and accelerates from 0 to 40 rounds per min (rpm) over a time period of 5 min, at which time all mice have fallen off the rod. All mice were tested in 4 repeating trials with a 20 min interval (resting time). Prior to surgery mice were pre-trained to stay on the rod for 30 seconds, at 4 rpm.

[7] = Spinal cord detection of fluorescent PSD-95 inhibitors; format: in vivo, mice; settings: conclusion for unlabeled compounds
Procedure: To investigate if AB143 and AB145 are able to enter spinal cord tissue, they were administered to the mice by intraperitoneal injection (30 mg/kg). The drug-treated mice were decapitated 30 min after injection, and the spinal cord was carefully dissected out, to which 5% trichloroacetic acid (TCA) (300 μL per 0.1 g tissue) was added and the tissue homogenized with an ultrasonic homogenizer (on ice). The homogenated tissue was vortexed and centrifuged for 10 min (20000 g at 4° C.). The supernatant was transferred to a test tube and evaporated, and the residue was reconstituted in water and its fluoresence intensity was determined by using a fluorescence plate reader (excitation/emission:470/525 nm). For quantification of the compounds, a standard curve was prepared by spiking a known amount of AB143 and AB145 into spinal cord tissue from control mice prior to homogenization, followed by work-up and analysis similar to the drug-treated mice.

[8] = tested on: pMCAO model of cerebral focal ischemia; test: pMCAO model of cerebral focal ischemia, infarct volume; format: in vivo, mice; settings: 3 nmol/g i.v. 30 min after pMCAO

Row | Compound | ability to enter the brain (concluded from fluorescent surrogates) [1] | blood pH ([2]; 3 nmol/g i.v.) | Hct [2] | [Ca2+] [2] | [K+] [2] | [Lactate] [2] | [Na+] [2] | pCO2 [2] | pO2 [2] | half-life at 0.25 mM [3] | CFA-induced mechanical hyperalgesia [4] | grip strength asymmetry between right and left front paw [5] | total grip strength (both paws) compared to baseline [5] | total time spent on the rod [6] | short term learning skill improvement on rotarod compared to saline ([6]; trials T1-T4) | ability to enter spinal cord tissue (concluded from fluorescent surrogates) [7] | reduction of ischemic tissue damage (infarct volume) compared to saline ([8]; 6 hour post-surgical survival) | reduction in infarct size compared to saline ([8]; 48 hours after pMCAO)
1 | CC[C@H](C)[C@H](NC(=O)CCOCCOCCN(CCOCCOCCC(=O)N[C@H](C(=O)N[C@@H](CCC(=O)O)C(=O)N[C@H](C(=O)N[C@@H](CC(=O)O)C(=O)N[C@H](C(=O)O)C(C)C)[C@@H](C)O)[C@@H](C)CC)C(=O)[C@H](CCCNC(=N)N)NC(=O)[C@H](CCCNC(=N)N)NC(=O)[C@H](CCCNC(=N)N)NC(=O)[C@H](CCC(N)=O)NC(=O)[C@H](CCCNC(=N)N)NC(=O)[C@H](CCCNC(=N)N)NC(=O)[C@H](CCCCN)NC(=O)[C@H](CCCCN)NC(=O)[C@H](CCCNC(=N)N)NC(=O)CNC(=O)[C@@H](N)Cc1ccc(O)cc1)C(=O)N[C@@H](CCC(=O)O)C(=O)N[C@H](C(=O)N[C@@H](CC(=O)O)C(=O)N[C@H](C(=O)O)C(C)C)[C@@H](C)O [AB144, Tat-NPEG4(IETDV)2] | ability to cross the blood-brain barrier; also recorded: able to enter the brain | 7.16 ± 0.01 | 43.5 ± 0.9% | 1.30 ± 0.02 mmol/L | 5.2 ± 0.20 mmol/L | 0.93 ± 0.07 mmol/L | 148 ± 2.0 mmol/L | 95.7 ± 2.3 mmHg | 50.2 ± 2.2 mmHg | 81.7 ± 1.67 h | prevented the development of CFA-induced mechanical hyperalgesia | no asymmetry and not | no significant change in total grip strength; also recorded: No difference compared to baseline | 83.5 ± 4.1 s | more pronounced short term learning skill improvement | able to enter CNS spinal cord tissue at relevant concentrations |  | 
2 | YGRKKRRQRRRKLSSIESDV [Tat-NR2B9c, reference compound] |  |  |  |  |  |  |  |  |  |  |  | observed | lost a significant amount of grip strength; also recorded: significant reduced grip strength | 65.7 ± 3.6 s |  |  | did not provide a statistically significant reduction; also recorded: not achieved | no statistically significant infarct reduction
